Measured values taken from patent EP4328302A1, “SYNTHESIS OF […] P450 MONO[…] A […]-FREE SYSTEM […] VESICLES” (Fraunhofer-Gesellschaft zur Förderung der angewandten …, priority 2022, dated 2024).

Molecular target: T1, CYP3A4 (Homo sapiens, UniProt P08684)
T1 construct: made in house; host or cells: cell-free protein synthesis in translationally active lysates of CHO-K1 or modified CHO (CHO-CPR, CHO-CPR/CYP3A4) cells; plasmid template from Biocat GmbH
Experiment: Luciferase based CYP3A4 activity assay (P450-Glo, Luciferin-IPA turnover) in the microsomal fraction after cell-free synthesis with heme supplementation
Type: biochemical
Protocol: Synthesis of proteins in translationally active lysates derived from cultured Chinese hamster ovary (CHO) cells and its modified variants CHO-CPR and CHO-CPR/CYP3A4 cells, was performed in batch based systems as previously described (Thoring et al. 2016). Accordingly designed plasmids, suitable for CFPS, coding for the CYP of interest, were applied as template. T7 RNA Polymerase, amino acids, an energy regeneration system and other supplements were added to the translationally active lysates with the additional supplementation of 5 µM heme (porcine) (Alfa Aesar Haverhill, Massachusetts, USA) to the reaction and a reaction temperature of 24 °C despite elsewise noted. For the isolation of the microsomes the translation mixture (TM) was centrifuged at 16.000 x g for 10 minutes at 4 °C. […]
For CYP activity measurement,"P450-Glo™ Assays" (Promega, Madison, Wisconsin, USA) were used. CYP1A2 activity was detected by Luciferase-ME turnover (V8772), CYP2B6 was detected by Luciferin-2B6 turnover (V8321) and CYP3A4 was detected by Luciferin-IPA turnover (V9001). […] For response condition adjustments, CYP activities were usually expressed as percentage of the highest CYP activity during the assay. For CYP activity quantification, a standard curve was prepared using beetles luciferin (Promega, Madison, Wisconsin, USA) according to the attached protocol. […]

T1 sequence (P08684 whole entry): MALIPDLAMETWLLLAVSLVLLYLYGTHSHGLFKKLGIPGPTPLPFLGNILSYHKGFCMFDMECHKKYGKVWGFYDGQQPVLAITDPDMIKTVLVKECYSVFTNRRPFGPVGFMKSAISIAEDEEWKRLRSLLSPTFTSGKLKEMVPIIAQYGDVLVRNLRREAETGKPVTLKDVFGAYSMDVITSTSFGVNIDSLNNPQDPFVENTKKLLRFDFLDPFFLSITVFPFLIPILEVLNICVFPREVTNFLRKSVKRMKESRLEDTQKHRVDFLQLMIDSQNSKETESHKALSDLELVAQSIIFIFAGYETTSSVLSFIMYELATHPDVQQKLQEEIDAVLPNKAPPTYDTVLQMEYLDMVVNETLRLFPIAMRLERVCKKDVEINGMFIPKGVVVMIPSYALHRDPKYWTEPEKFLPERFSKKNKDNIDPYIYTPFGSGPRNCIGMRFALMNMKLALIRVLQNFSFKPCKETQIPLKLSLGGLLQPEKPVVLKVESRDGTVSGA

SMILES: C=CC1=C(C)c2cc3[n-]c(cc4[n-]c(cc5nc(cc1n2)C(C)=C5C=C)c(C)c4CCC(=O)O)c(CCC(=O)O)c3C.[Fe+2] [heme]
- CYP3A4 activity compared to the control without supplementation (heme concentration of 5 µM in the cell-free reaction, microsomal fraction (MF), triplicate analysis, highest CYP3A4 activity): more than twofold higher
- reduced activity compared to the 5 µM heme supplemented sample (supplementation of higher concentrations of heme (above 5 µM) to the cell-free reaction, CYP3A4 activity in MF): 60%
